Reference: ChEMBL document CHEMBL5338768, “Discovery of PMSA Derivative 11 as a Novel Lead Compound for Therapeutic Treatment of Osteoporosis In Vitro and In Vivo” (J Med Chem, 2023)
Activity calls are given as the source filed them. No cut-off for these calls is given here.

Assays:
[1] = test system: Osteoclast; experiment: Anti-osteoclastogenesis in RANKL induced C57/BL6 mouse osteoclast assessed as formation of mature osteoclast measured at 1 uM by TRAP-staining based microscopic analysis relative to control; assay type: functional
[2] = molecular target: T1, Nuclear factor of activated T-cells, cytoplasmic 1 (Mus musculus) (UniProt O88942); experiment: Inhibition of pronase mediated NFATc1 degradation in mouse osteogenic differentiated BMDM multi nuclear mature osteoclast at 50 uM for 1 hr by drug affinity responsive target stability analysis; assay type: cell-based
T1 sequence (whole entry): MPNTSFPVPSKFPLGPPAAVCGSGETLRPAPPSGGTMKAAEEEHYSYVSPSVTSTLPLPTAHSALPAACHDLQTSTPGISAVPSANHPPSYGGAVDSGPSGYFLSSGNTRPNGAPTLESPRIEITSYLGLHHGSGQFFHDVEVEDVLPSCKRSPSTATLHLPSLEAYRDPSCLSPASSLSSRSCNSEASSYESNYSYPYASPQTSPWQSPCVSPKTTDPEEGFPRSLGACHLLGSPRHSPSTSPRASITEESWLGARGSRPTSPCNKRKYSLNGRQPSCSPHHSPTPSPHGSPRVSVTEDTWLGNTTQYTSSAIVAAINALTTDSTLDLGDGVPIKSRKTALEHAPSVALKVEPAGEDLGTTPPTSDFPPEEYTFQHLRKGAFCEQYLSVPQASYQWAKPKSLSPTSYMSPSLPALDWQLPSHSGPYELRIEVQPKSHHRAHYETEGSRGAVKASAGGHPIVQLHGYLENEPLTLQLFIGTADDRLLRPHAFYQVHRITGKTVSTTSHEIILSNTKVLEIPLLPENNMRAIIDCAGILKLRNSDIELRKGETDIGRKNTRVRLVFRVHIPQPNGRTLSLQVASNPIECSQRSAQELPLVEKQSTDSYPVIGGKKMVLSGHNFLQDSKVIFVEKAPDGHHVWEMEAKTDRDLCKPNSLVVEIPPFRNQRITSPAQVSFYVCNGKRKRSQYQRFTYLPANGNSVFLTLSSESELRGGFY

[3] = test system: Osteoclast; experiment: Anti-osteoclastogenesis in RANKL induced C57/BL6 mouse osteoclast assessed as inhibition of differentiation of bone marrow derived macrophage measured by TRAP-staining based microscopic analysis; assay type: functional, cell-based
[4] = test system: BMDM; experiment: Cytotoxicity in RANKL induced C57/BL6 mouse BMDM incubated at <4 uM for 48 hrs; assay type: functional, cell-based
[5] = test system: BMDM; experiment: Cytotoxicity in RANKL induced C57/BL6 mouse mouse osteogenic differentiated BMDM assessed as blocking of formation of multinucleated mature osteoclast incubated at 4 uM for 48 hrs; assay type: functional, cell-based
[6] = test system: Osteoclast; experiment: Anti-osteoclastogenesis in RANKL induced C57/BL6 mouse osteoclast assessed as blocking of formation of multinucleated mature osteoclast incubated for 48 hrs; assay type: functional, cell-based; settings: dose 62.5-4000 nM
[7] = test system: BMDM; experiment: Anti-osteoclastogenesis in RANKL/M-CSF induced C57/BL6 mouse osteogenic differentiated BMDM assessed as repression of F-actin ring at 500 to 2000 nM spectra max i3x fluorescence plate reader based microscopic analysis; assay type: functional, cell-based; settings: dose 500-2000 nM
[8] = test system: BMDM; experiment: Anti-osteoclastogenesis in RANKL/M-CSF induced C57/BL6 mouse osteogenic differentiated BMDM assessed as decrease in pit area at 0.5 to 2 uM for 6 days by measuring fluorescence intensity using fluorescein amine labelled calcium plate method; assay type: functional, cell-based; settings: dose 0.5-2 µM, time 6.0 day
[9] = test system: Calvarial osteoblast; experiment: Effect on osteogenesis in BMP2 stimulated mouse osteogenic differentiated calvaria primary osteoblast assessed as chane in percentage of ALP positive density at 0.125 to 16 uM with replacement of compound containing media daily for 9 days by ALP staining analysis; assay type: functional, cell-based; settings: dose 0.125-16 µM, time 9.0 day
[10] = test system: BMDM; experiment: Anti-osteoclastogenesis in RANKL/M-CSF induced C57/BL6 mouse osteogenic differentiated BMDM assessed as suppression of mRNA level of osteoclastogenesis related Dc-stamp gene expression measured for 0 to 4 days by qRT-PCR analysis; assay type: functional, cell-based; settings: time 0-4 day
[11] = test system: BMDM; experiment: Anti-osteoclastogenesis in RANKL/M-CSF induced C57/BL6 mouse osteogenic differentiated BMDM assessed as suppression of mRNA level of osteoclastogenesis related Acp5 gene expression measured for 0 to 4 days by qRT-PCR analysis; assay type: functional, cell-based; settings: time 0-4 day
[12] = test system: BMDM; experiment: Anti-osteoclastogenesis in RANKL/M-CSF induced C57/BL6 mouse osteogenic differentiated BMDM assessed as suppression of mRNA level of osteoclastogenesis related Nfatc1 gene expression measured for 0 to 4 days by qRT-PCR analysis; assay type: functional, cell-based; settings: time 0-4 day
[13] = test system: BMDM; experiment: Anti-osteoclastogenesis in RANKL/M-CSF induced C57/BL6 mouse osteogenic differentiated BMDM assessed as suppression of mRNA level of osteoclastogenesis related Atp6v0d2 gene expression measured for 0 to 4 days by qRT-PCR analysis; assay type: functional, cell-based; settings: time 0-4 day
[14] = test system: BMDM; experiment: Anti-osteoclastogenesis in RANKL/M-CSF induced C57/BL6 mouse osteogenic differentiated BMDM assessed as suppression of mRNA level of osteoclastogenesis related Mmp9 gene expression measured for 0 to 4 days by qRT-PCR analysis; assay type: functional, cell-based; settings: time 0-4 day
[15] = test system: BMDM; experiment: Anti-osteoclastogenesis in RANKL/M-CSF induced C57/BL6 mouse osteogenic differentiated BMDM assessed as suppression of mRNA level of osteoclastogenesis related Ctsk-gene expression measured for 0 to 4 days by qRT-PCR analysis; assay type: functional, cell-based; settings: time 0-4 day
[16] = test system: BMDM; experiment: Anti-osteoclastogenesis in RANKL induced C57/BL6 mouse osteogenic differentiated BMDM assessed as inhibition of TRAF6 protein expression measured at 1 uM for 0 to 4 days by Western blotting analysis; assay type: functional, cell-based; settings: time 0-4 day
[17] = test system: BMDM; experiment: Anti-osteoclastogenesis in RANKL induced C57/BL6 mouse osteogenic differentiated BMDM assessed as inhibition of c-src protein expression measured at 1 uM for 0 to 4 days by Western blotting analysis; assay type: functional, cell-based; settings: time 0-4 day
[18] = test system: BMDM; experiment: Anti-osteoclastogenesis in RANKL induced C57/BL6 mouse osteogenic differentiated BMDM assessed as inhibition of N-FkappaB protein expression measured at 1 uM for 0 to 4 days by Western blotting analysis; assay type: functional, cell-based; settings: time 0-4 day
[19] = test system: BMDM; experiment: Anti-osteoclastogenesis in RANKL induced C57/BL6 mouse osteogenic differentiated BMDM assessed as inhibition of c-fos protein expression measured at 1 uM for 0 to 4 days by Western blotting analysis; assay type: functional, cell-based; settings: time 0-4 day
[20] = test system: BMDM; experiment: Anti-osteoclastogenesis in RANKL induced C57/BL6 mouse osteogenic differentiated BMDM assessed as inhibition of NFATc1 protein expression measured at 1 uM for 0 to 4 days by Western blotting analysis; assay type: functional, cell-based; settings: time 0-4 day
[21] = test system: BMDM; experiment: Anti-osteoclastogenesis in RANKL induced C57/BL6 mouse osteogenic differentiated BMDM assessed as inhibition of protease Ctsk-protein expression measured at 1 uM for 0 to 4 days by Western blotting analysis; assay type: functional, cell-based; settings: time 0-4 day
[22] = test system: BMDM; experiment: Anti-osteoclastogenesis in RANKL induced C57/BL6 mouse osteogenic differentiated BMDM assessed as increased NAFTc1 protein level in cytoplasm measured for 48 hrs by Western blotting analysis; assay type: functional, cell-based
[23] = test system: BMDM; experiment: Anti-osteoclastogenesis in RANKL induced C57/BL6 mouse osteogenic differentiated BMDM assessed as decreased NAFTc1 protein level in nucleus measured for 48 hrs by Western blotting analysis; assay type: functional, cell-based
[24] = test system: BMDM; experiment: Anti-osteoclastogenesis in RANKL/M-CSF induced C57/BL6 mouse osteogenic differentiated BMDM assessed as expression of calcineurin A in NAFTc1 translocation by immunofluorescence microscopy; assay type: functional, cell-based
[25] = test system: BMDM; experiment: Anti-osteoclastogenesis in RANKL/M-CSF induced C57/BL6 mouse osteogenic differentiated BMDM assessed as expression of GSK3beta in NAFTc1 translocation by immunofluorescence microscopy; assay type: functional, cell-based
[26] = test system: BMDM; experiment: Anti-osteoclastogenesis in RANKL/M-CSF induced C57/BL6 mouse osteogenic differentiated BMDM assessed as expression of CRM1 in NAFTc1 translocation by immunofluorescence microscopy; assay type: functional, cell-based
[27] = test system: BMDM; experiment: Anti-osteoclastogenesis in RANKL/M-CSF induced C57/BL6 mouse osteogenic differentiated BMDM assessed as expression of GAPDH in NAFTc1 translocation by immunofluorescence microscopy; assay type: functional, cell-based
[28] = test system: Osteoclast; experiment: Anti-osteoclastogenesis in human RANKL/human M-CSF induced human iPSC-derived macrophage assessed as inhibition of mature osteoclast differentiation measured for 10 days by TRAP staining assay; assay type: functional, cell-based; settings: time 10.0 day
[29] = Toxicity in OVX induced osteoporosis C57BL/6 mouse model assessed as reduction of body weight at 20 mg/kg, ip daily for 4 weeks measured every week; assay type: organism-based; settings: in vivo, 672 h
[30] = test system: Mus musculus; experiment: Anti-osteoporosis activity in OVX induced osteoporosis C57BL/6 mouse model assessed as prevention of bone loss in femur at 20 mg/kg, ip daily for 4 weeks by micro computed tomographic analysis; assay type: functional, organism-based
[31] = test system: BMDM; experiment: Anti-osteoclastogenesis in RANKL/M-CSF induced C57/BL6 mouse osteogenic differentiated BMDM assessed as repression of F-actin ring at 10 uM spectra max i3x fluorescence plate reader based microscopic analysis; assay type: functional, cell-based
[32] = test system: BMDM; experiment: Anti-osteoclastogenesis in RANKL/M-CSF induced C57/BL6 mouse osteogenic differentiated BMDM assessed as decrease in pit area at 10 uM for 6 days by measuring fluorescence intensity using fluorescein amine labelled calcium plate method; assay type: functional, cell-based; settings: time 6.0 day

SMILES: CS(=O)(=O)N(CC(=O)Nc1ccccc1Sc1ccccc1)c1cccc(C(=O)Oc2ccc(Cl)cc2)c1
- inhibition at 1 µM [1]: 23.9%

SMILES: COC(=O)c1cccc(N(CC(=O)Nc2ccccc2Sc2ccccc2)S(C)(=O)=O)c1
- inhibition at 1 µM [1]: 8.13%

SMILES: CS(=O)(=O)N(CC(=O)Nc1ccccc1Sc1ccccc1)c1cccc(C(=O)Oc2cccc3ccccc23)c1
- inhibition at 1 µM [1]: 9.03%

SMILES: COc1ccccc1OC(=O)c1cccc(N(CC(=O)Nc2ccccc2Sc2ccccc2)S(C)(=O)=O)c1
- inhibition at 1 µM [1]: 20.3%

SMILES: COC(=O)c1cccc(NCC(=O)Nc2ccccc2Sc2ccccc2)c1
- inhibition [2]: Active
- inhibition at 1 µM [1]: 74.5%
- IC50 [3]: 323 nM
- Activity [4]: inactive
- Activity [5]: Active
- Activity [6]: Dose-Dependent Effect
- Activity [7]: Active
- Activity [8]: Dose-Dependent Effect
- Activity [9]: inactive
- Activity [10]: Active
- Activity [11]: Active
- Activity [12]: Active
- Activity [13]: Active
- Activity [14]: Active
- Activity [15]: Active
- Activity [16]: inactive
- Activity [17]: inactive
- Activity [18]: inactive
- Activity [19]: inactive
- Activity [20]: inactive
- Activity [21]: Active
- Activity [22]: Active
- Activity [23]: Active
- Activity [24]: inactive
- Activity [25]: inactive
- Activity [26]: inactive
- Activity [27]: inactive
- Activity [28]: Active
- Activity [29]: Non-Toxic
- Activity [30]: Active

SMILES: Cc1ccc(OC(=O)c2cccc(N(CC(=O)Nc3ccccc3Sc3ccccc3)S(C)(=O)=O)c2)cc1
- inhibition at 1 µM [1]: 14.2%

SMILES: COc1ccccc1OC(=O)c1cccc(NCC(=O)Nc2ccccc2Sc2ccccc2)c1
- inhibition at 1 µM [1]: 52.3%

SMILES: CS(=O)(=O)N(CC(=O)Nc1ccccc1Sc1ccccc1)c1cccc(C(=O)Oc2ccccc2C#N)c1
- inhibition at 1 µM [1]: 11.1%

SMILES: CS(=O)(=O)N(CC(=O)Nc1ccccc1Sc1ccccc1)c1cccc(C(=O)O)c1
- inhibition at 1 µM [1]: 0.11%

SMILES: CC(C)(C)c1ccc(OC(=O)c2cccc(N(CC(=O)Nc3ccccc3Sc3ccccc3)S(C)(=O)=O)c2)cc1
- inhibition at 1 µM [1]: 4.07%

SMILES: CC(=O)c1cccc(N(CC(=O)Nc2ccccc2Sc2ccccc2)S(C)(=O)=O)c1
- inhibition at 1 µM [1]: 6.09%
- Activity [31]: Active
- Activity [32]: Active
- Activity [30]: inactive

SMILES: COc1ccc(OC(=O)c2cccc(N(CC(=O)Nc3ccccc3Sc3ccccc3)S(C)(=O)=O)c2)cc1
- inhibition at 1 µM [1]: 25.7%

SMILES: CS(=O)(=O)N(CC(=O)Nc1ccccc1Sc1ccccc1)c1cccc(C(=O)Oc2ccc([N+](=O)[O-])cc2)c1
- inhibition at 1 µM [1]: 15.3%

SMILES: CS(=O)(=O)N(CC(=O)Nc1ccccc1Sc1ccccc1)c1cccc(Cl)c1
- inhibition at 1 µM [1]: 16.2%

SMILES: Cc1cccc(OC(=O)c2cccc(N(CC(=O)Nc3ccccc3Sc3ccccc3)S(C)(=O)=O)c2)c1
- inhibition at 1 µM [1]: 19%

SMILES: NCCCC(O)(P(=O)(O)O)P(=O)(O)O [ALENDRONIC ACID]
- inhibition at 1 µM [1]: 30.9%

SMILES: O=C(CNc1cccc(C(=O)Oc2ccc(Cl)cc2)c1)Nc1ccccc1Sc1ccccc1
- inhibition at 1 µM [1]: 43.2%

SMILES: COc1ccc(OC(=O)c2cccc(NCC(=O)Nc3ccccc3Sc3ccccc3)c2)cc1
- inhibition at 1 µM [1]: 50.9%

SMILES: CS(=O)(=O)N(CC(=O)Nc1ccccc1Sc1ccccc1)c1cccc(C(=O)Oc2ccc3ccccc3c2)c1
- inhibition at 1 µM [1]: 11.3%

SMILES: CS(=O)(=O)N(CC(=O)Nc1ccccc1Sc1ccccc1)c1cccc(C(=O)Oc2cccc([N+](=O)[O-])c2)c1
- inhibition at 1 µM [1]: 4.74%

SMILES: Cc1ccccc1OC(=O)c1cccc(N(CC(=O)Nc2ccccc2Sc2ccccc2)S(C)(=O)=O)c1
- inhibition at 1 µM [1]: 15.3%
